# Data as given in publication PMC8044163, “Vitamin D and lumisterol derivatives can act on liver X receptors (LXRs)” (Scientific Reports, 2021).
# Key:
# LBD of LXRα = target: T1, LBD of LXRα (Homo sapiens, UniProt Q13133); experiment: LanthaScreen TR-FRET LXRα coactivator assay (LXR binding assay); assay type: biochemical; conditions: agonist; average values; read-out: LXRα EC50
# T1 construct: after addition of LXRα/β-LBD to the derivatives; purchased Thermo Fisher Scientific
# T1 sequence (Q13133 209-447 limits assumed): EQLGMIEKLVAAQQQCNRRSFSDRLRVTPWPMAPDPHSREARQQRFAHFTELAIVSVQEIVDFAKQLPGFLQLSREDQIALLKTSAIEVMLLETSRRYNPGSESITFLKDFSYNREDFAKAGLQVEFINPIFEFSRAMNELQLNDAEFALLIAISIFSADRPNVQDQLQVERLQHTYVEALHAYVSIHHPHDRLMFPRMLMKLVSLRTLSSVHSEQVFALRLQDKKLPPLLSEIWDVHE
# Description: (§1) Binding assays of graded concentrations of vitamin D3 or lumisterol hydroxyderivatives to LXRα/β were performed using the LanthaScreen TR-FRET LXRα/β Coactivator kit (Thermo Fisher Scientific, Inc., Waltham, MA) following the manufacture’s protocol. Briefly, after addition of LXRα/β-LBD to the derivatives, a mixture of peptide (Fluorescein-TRAP220/DRIP-2 for LXRα or Fluorescein-D22 for LXRβ) and antibody (Tb-anti-GST) was added to the reaction followed by incubation in room temperature for 2 h. TR-FRET ratio was calculated by dividing the emission at 520 nm by the emission at 495 nm using Synergy neo2 (BioTek, Winooski, VT).
# [1] = tested on: LXR-response element (LXRE)-driven reporter in CHO cells; experiment: LXRE-driven luciferase reporter assay in CHO cells; assay type: cell-based; conditions: 10^–7 M, CHO cells
# Description: The effects of vitamin D3 and L3 hydroxyderivatives were tested on the LXRE transcriptional activity using pGreenFire1-LXRE-in-ApoE Lentivirus (System Biosciences, Palo Alto, CA). This plasmid was transduced in CHO and HaCaT cells following the manufacture’s protocol and the cells used as a stable LXRE expressed tool. Briefly, the virus was transduced into the cells using TransDux MAX Lentivirus Transduction Enhancer (System Biosciences, Palo Alto, CA) and screened to select the transduced cells using puromycin. The transduced cells were treated with the compounds for 24 h in media containing 5% cFBS (charcoal-treated fetal bovine serum) and the luminescence was read by ONE-Glo Luciferase Assay System (Promega, Madison, WI) using Cytation 5 (BioTek, Winooski, VT).
# LBD of LXRβ = target: T2, LBD of LXRβ (Homo sapiens, UniProt P55055); experiment: LanthaScreen TR-FRET LXRβ coactivator assay (LXR binding assay); assay type: biochemical; conditions: agonist; average values; read-out: LXRβ EC50
# T2 construct: purchased Thermo Fisher Scientific
# T2 sequence (P55055 222-460 limits assumed): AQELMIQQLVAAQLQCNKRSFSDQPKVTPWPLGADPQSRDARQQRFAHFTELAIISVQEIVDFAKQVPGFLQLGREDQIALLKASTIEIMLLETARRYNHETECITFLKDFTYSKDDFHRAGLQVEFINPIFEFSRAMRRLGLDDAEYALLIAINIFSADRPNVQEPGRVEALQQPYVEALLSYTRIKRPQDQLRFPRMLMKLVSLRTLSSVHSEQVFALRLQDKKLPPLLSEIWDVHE
# Description: as §1
# ABCA1 = experiment: qPCR of ABCA1 in HaCaT keratinocytes; assay type: cell-based, human; conditions: 10^–7 M
# Description: HaCaT keratinocytes were cultured as described previously. For RNA isolation the cells were maintained in TPP tissue culture petri dishes (Ø60 mm, 22.1 cm^2) in DMEM containing 10% cFBC to reach semi-confluence and then exposed to 10^–7 M compounds or a corresponding concentration of ethanol solvent.
# RNA isolated from either fibroblasts, HaCaT cells or brain was submitted for cDNA synthesis (High Capacity cDNA Reverse Transcription Kit with RNase Inhibitor, Applied Biosystems) following the manufacturers’ protocols. RT-PCR was carried out using Cyber green, in triplicates; as previously described. Approximately, 750 ng of cDNA was used for PCR reactions. GAPDH and CIC-B were used as internal controls. Primer sequences are listed in Supplementary Table 27. Data were analyzed using GraphPad Prism statistical software one way ANOVA or t-test, where appropriate; *p < 0.05; **p < 0.01; ***p < 0.001.
# VDR = target: T3, VDR (Homo sapiens, UniProt P11473); experiment: Translocation of VDR to the nucleus, imaging flow cytometry in HaCaT; assay type: cell-based; conditions: 10^–7 M, 12 h
# T3 construct: endogenous in cells; host or cells: HaCaT keratinocytes
# T3 sequence (P11473 1-427): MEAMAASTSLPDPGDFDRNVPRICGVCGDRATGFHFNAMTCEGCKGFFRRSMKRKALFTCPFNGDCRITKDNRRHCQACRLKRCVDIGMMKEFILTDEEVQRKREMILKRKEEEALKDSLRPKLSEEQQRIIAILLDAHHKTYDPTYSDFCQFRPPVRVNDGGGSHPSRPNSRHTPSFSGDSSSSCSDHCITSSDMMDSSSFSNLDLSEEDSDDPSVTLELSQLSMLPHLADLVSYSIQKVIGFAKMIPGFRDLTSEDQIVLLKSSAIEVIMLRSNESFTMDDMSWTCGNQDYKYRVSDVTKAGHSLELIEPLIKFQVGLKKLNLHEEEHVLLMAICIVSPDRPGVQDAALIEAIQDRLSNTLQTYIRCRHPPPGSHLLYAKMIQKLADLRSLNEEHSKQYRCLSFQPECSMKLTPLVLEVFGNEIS
# LXRα/β = experiment: Ligand induced translocation of LXRα/β to the nucleus, imaging flow cytometry in HaCaT; assay type: cell-based, human; conditions: 10^–7 M, 12 h
# Description: (§2) HaCaT cells were plated in DMEM plus 5% cFBS either on a sterile glass cover slip placed in a well of a 6-well plates for immunofluorescence (IF) assays or TPP Petri dishes for image-stream flow cytometry, and treated with 10^–7 M D3- or L3-hydroxyderivatives or 0.1% ethanol (vehicle) as a negative control was added to each well, and the cells were incubated for 12 or 24 h at 37 °C with 5% CO2. For IF the cells were fixed in 4% paraformaldehyde for 15 min, incubated in 0.5% Triton X-100 in phosphate-buffered saline (PBS) for 5 min, and washed 3 times in PBS. After blocking with 2% bovine serum albumin (BSA) in PBS for 1 h at room temperature, the cells were treated with an anti-LXRα antibody (Novus Biologicals, LLC, Centennial, CO) at 1:200 in PBS supplemented with 2% BSA overnight in 4 °C. After washing the slides were incubated with a mouse anti-rabbit IgG-FITC (Santa Cruz Biotechnology, Inc, Dallas, TX) at 1:200 dilution for 1.5 h at 37 °C. After washing the slides were mounted using propidium iodide (PI) (Vector Labs, Burlingame, California) as a nuclear counterstain. The slides were examined using a KEYENCE America BZ-X710 Fluorescence Microscope (Itasca, IL). The images were subsequently analyzed using the JACoP plugin for colocalization analysis with ImageJ[74]. Five separate high-power field (40×) images were converted to grayscale and analyzed for each condition. Manders’ coefficient (M1), calculated using a preset threshold, was used to quantify the degree of colocalization between PI and LXRα with 0 representing no colocalization, and 1 representing perfect colocalization.
# For Image Stream II (Amnis, Seattle, WA, USA) cytometer analyses, HaCaT cells were detached and processed as previously described. The cells were fixed with paraformaldehyde and permeabilized in methanol containing buffer[78],[79] and Hoechst stain (r37165, ThermoFisher) and rabbit antibodies to LXRα/β (sc 377260, AF 647, SantaCruz) or VDR (sc-13133, AF 488, SantaCruz) as described previously. Data were analyzed using IDEAS software (Amnis, Seattle, WA, USA).
# LXRα = target: T4, LXRα (Homo sapiens, UniProt Q13133); experiment: Ligand induced translocation of LXRα to the nucleus, immunofluorescence in HaCaT; assay type: cell-based; conditions: 10^−7 M, 24 h
# T4 construct: endogenous in cells; host or cells: HaCaT keratinocytes
# T4 sequence (Q13133 1-447): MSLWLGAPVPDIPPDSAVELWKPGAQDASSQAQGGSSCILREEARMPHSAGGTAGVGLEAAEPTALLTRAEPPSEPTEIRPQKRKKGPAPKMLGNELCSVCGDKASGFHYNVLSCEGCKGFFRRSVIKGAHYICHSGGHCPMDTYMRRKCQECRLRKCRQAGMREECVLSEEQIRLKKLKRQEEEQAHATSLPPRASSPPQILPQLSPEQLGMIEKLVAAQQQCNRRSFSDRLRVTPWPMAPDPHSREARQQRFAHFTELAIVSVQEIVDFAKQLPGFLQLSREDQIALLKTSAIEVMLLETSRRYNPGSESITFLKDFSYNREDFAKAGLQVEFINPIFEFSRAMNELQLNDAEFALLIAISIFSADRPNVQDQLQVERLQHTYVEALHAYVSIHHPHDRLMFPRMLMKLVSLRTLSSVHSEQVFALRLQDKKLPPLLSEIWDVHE
# Description: as §2
SMILES,EC50 (LBD of LXRα),LXRE luciferase (transcriptional) activity [1],EC50 (LBD of LXRβ),ABCA1 RNA expression (qPCR) (ABCA1),translocation of VDR from the cytoplasm to the nucleus (VDR),translocation of LXRα/β from the cytoplasm to the nucleus (LXRα/β),"translocation of LXRα to the nucleus (immunofluorescence, Manders' coefficient) (LXRα)"
"C=C1CCC(O)CC1=CC=C1CCCC2(C)C1CCC2(O)C(C)O (stereo not drawn) [17,20(OH)2pD]",30 µM,weakest stimulant,2.6 µM,,,,
"C=C1CC[C@H](O)C/C1=C/C=C1\CCC[C@]2(C)[C@@H]([C@H](C)CCCC(C)(C)O)CC[C@@H]12 [25(OH)D3, reference compound]",0.011 µM,,3.8 µM,stimulation,increased translocation,increased translocation,induced translocation
